Assay results published in patent publication USRE49223E1, “Water-soluble fluorescence compound and method for preparing the same” (SNU R&DB FOUNDATION, priority 2011, dated 2022).
One block for each compound: values may come before it.

Tests used:
[1] = in ethanol; reference standard; cited from earlier work
[2] = Excitation and emission maxima by fluorescent spectrophotometer; type: physicochemical; settings: solvent: Ref. Ex. 1 methanol, 2 ethanol, 3 n-propanol, 4 iso-propanol, 5 n-butanol, 6 DMSO
Procedure: UV absorption of the final fluorescent compound is determined by using a UV-VISIBLE spectrophotometer (Perkin Elmer, USA). Maximum values of excitation and emission are determined by using a fluorescent spectrophotometer (PTI, USA).
(§1) Except for conducting the photochemical reaction in the presence of an organic solvent such as ethanol (Reference Example 2), n-propanol (Reference Example 3), iso-propanol (Reference Example 4), n- butanol (Reference Example 5) or DMSO (Reference Example 6), respectively, the fluorescent compound is obtained from trans-resveratrol in the same manner as Reference Example 1.

[3] = Fluorescence quantum yield (relative vs rhodamin 6G; absolute PL quantum yield system); type: physicochemical; settings: solvent: Ref. Ex. 1 methanol, 2 ethanol, 3 n-propanol, 4 iso-propanol, 5 n-butanol, 6 DMSO; for Absolute quantum yield: absolute PL quantum yield measurement system; for Relative quantum yield: relative to rhodamin 6G
Procedure: The absolute quantum yield is determined by using an absolute PL quantum yield measurement system (QE-1000, Otsuka Electronics, Japan). The relative quantum yield is determined by measuring the absorbance and emission intensity for each five concentrations for one solvent, determining the slope of said measured values, and comparing the slope with that of rhodamin 6G (the quantum yield of rhodamin 6G in ethanol is 0.95).
as §1

[4] = Irradiation with natural light (photochemical stability); type: physicochemical; settings: natural light for a long period of time
From the text: Meanwhile, prior art (PCT/EP01/06103) discloses using polydatin of formula 5 above as sunblock.

[5] = tested on: breast epithelial cell line; experiment: Western blotting test of cell extinction and damage markers (Caspase-3, PARP); type: cell-based; settings: 1, 10 and 100 μM (FIG. 15)
Procedure: (§2) After a certain period of time, the degree of cell extinction is evaluated by examining the degree of expression of extinction and damage of a specific factor by using Western Blotting Test and the result is shown in FIG. 15.

[6] = tested on: breast epithelial cell line; experiment: Cytomorphology test (cytotoxicity); type: cell-based; settings: breast epithelial cells, cultured about 72 hours, microscopic examination (FIG. 13)
Procedure: (§3) In the presence of a test compound or a comparative compound, a cell line is cultured for a certain period of time (about 72 hours) and then a cytotoxicity test is conducted. As a control group, a blank test is conducted in the same manner as above without adding any compound including the test compound and the comparative compound.

[7] = tested on: breast epithelial cell; experiment: Trypan blue exclusion test (cytotoxicity); type: cell-based; settings: both test concentrations 1 μM and 10 μM (FIG. 14)
Procedure: as §3

[8] = tested on: osteosarcoma cell line (U2OS); experiment: Western blotting test of cell extinction and damage markers (Caspase-3, PARP); type: cell-based; settings: U2OS osteosarcoma cells; 10 μM (FIG. 15)
Procedure: as §2

[9] = listed as Reference Example 2, in Ethanol solvent
[10] = listed as Reference Example 3, in n-Propanol solvent
[11] = listed as Reference Example 4, in iso-Propanol solvent
[12] = listed as Reference Example 5, in n-Butanol solvent
[13] = listed as Reference Example 6, in DMSO solvent

SMILES: CCN=c1cc2oc3cc(NCC)c(C)cc3c(-c3ccccc3C(=O)OCC)c-2cc1C.Cl [rhodamin 6G]
- quantum yield [1]: 0.95

- Emission [2]: 547 nm
- Excitation [2]: 390 nm
- Emission [2, 9]: 540 nm
- Emission [2, 10]: 534 nm
- Emission [2, 11]: 525 nm
- Emission [2, 12]: 536 nm
- Emission [2, 13]: 497 nm
- Absolute quantum yield [3]: 0.058
- Absolute quantum yield [3, 9]: 0.145
- Absolute quantum yield [3, 10]: 0.212
- Absolute quantum yield [3, 11]: 0.311
- Absolute quantum yield [3, 12]: 0.254
- Absolute quantum yield [3, 13]: 0.439
- Relative quantum yield [3]: 0.035
- Relative quantum yield [3, 9]: 0.103
- Relative quantum yield [3, 10]: 0.155
- Relative quantum yield [3, 11]: 0.247
- Relative quantum yield [3, 12]: 0.200
- Relative quantum yield [3, 13]: 0.523
SMILES: CC(=O)/C=C/c1ccc2cc(O)cc(O)c2c1 [Reference Example 1, (E)-4-(6,8-dihydroxynaphthalen-2-yl) but-3-en-2-one]

SMILES: OC[C@H]1O[C@@H](Oc2cc(O)cc(/C=C/c3ccc(O)cc3)c2)[C@H](O)[C@@H](O)[C@@H]1O [polydatin, resveratrol 3-O-β-glucoside]
- photochemical reaction product after irradiation [4]: any photochemical reaction product could not be found

SMILES: CC(=O)/C=C/c1ccc2cc(O[C@@H]3O[C@H](CO)[C@@H](O)[C@H](O)[C@H]3O)cc(O)c2c1 [Resveratrone glucoside, (E)-4-(8-hydroxy-6-(((2S,3R,4S,5S,6R)-3,4,5-trihydroxy-6-(hydroxymethyl)tetrahydro-2H-pyran-2-yl)oxy)naphthalen-2-yl)but-3-en-2-one]
- Western blot peaks resulting from cell extinction and damage [5]: no peak at 17 kDa, 19 kDa and 89 kDa positions
- cytomorphology and number change of the cultured cell vs control group [6]: no significant difference from the control group
- number of cells alive vs control group [7]: number of cells similar to that of the control group

SMILES: COc1cc([C@@H]2c3cc4c(cc3[C@@H](O[C@@H]3O[C@@H]5CO[C@@H](C)O[C@H]5[C@H](O)[C@H]3O)[C@H]3COC(=O)[C@H]23)OCO4)cc(OC)c1O [Etoposide]
- Western blot peaks resulting from cell extinction and damage [8]: significantly remarkable peak at 17 kDa, 19 kDa and 89 kDa positions
